Data as given in PMC10892497, “Discovery of Pyrano[2,3-c]pyrazole Derivatives as Novel Potential Human Coronavirus Inhibitors: Design, Synthesis, In Silico, In Vitro, and ADME Studies” (Pharmaceuticals, 2024).
Like-named read-outs stand apart in the source and are kept apart here.

Experiments:
[1] = MTT assay for cellular toxicity; details: African green monkey
[2] = tested on: HCoV-229E; experiment: Cytopathic inhibition assay (crystal violet); details: for antiviral activity against HCoV-229E (in words): Vero-E6; for IC50: cytopathic inhibition assay
[3] = tested on: HCoV-229E; experiment: Mode of action using plaque assay (virucidal, adsorption, replication); type: cell-based, human coronavirus 229E; details: replication mechanism
[4] = target: T1, SARS-CoV2 protease enzyme (3CL protease, M^pro) (Severe acute respiratory syndrome coronavirus 2, UniProt P0DTD1); experiment: Protease (SARS-CoV2) inhibition test, 3CL Protease Test Kit; type: biochemical
T1 construct: provided with 30 µL of diluted 3CL Protease enzyme solution (M^pro); purchased BPS Bioscience, San Diego, CA, USA #79955-1

[5] = Human coronavirus 229E, Vero C1008, HCoV-229E in Vero-E6 cells
[6] = Vero-E6 cells infected with HCoV-229E

Row | SMILES | CC50 at 48 h [1] [µM] | selectivity ratio [2] | antiviral activity against HCoV-229E (in words) [2] | IC50 [2, 5] [µM] | IC50 ([2]; HCoV-229E in Vero-E6 cells) [µM] | selectivity ratio [2, 6] | reduction percentage, replication phase [3] [%] | IC50 [4] [µM] | melting point [°C]
1 | Cc1n[nH]c2c1C(c1cccs1)c1c(N)ncnc1O2 (stereo not drawn) [Compound 2] | 749 | 2.4 | minimal antiviral activity | 309 | – | – | – | – | –
2 | Cc1n[nH]c2c1C(c1cccs1)C(C#N)=C(/N=C/c1nncn1C)O2 (stereo not drawn) [Compound 4] | 67.5 | 0.9 | did not | 78.1 | 70.1 | – | – | – | –
3 | Cc1n[nH]c2c1C(c1cccs1)C(C#N)=C(N1C(=O)CSC1c1nncn1C)O2 (stereo not drawn) [Compound 5] | 95.4 | 1.86 | minimal antiviral activity | 51.2 | – | – | – | – | –
4 | Cc1n[nH]c2c1C(c1cccs1)C(C#N)=C(N1C(=O)C(Cl)C1c1nncn1C)O2 (stereo not drawn) [Compound 6] | 585 | – | moderate efficacies | 65.6 | 89.4 | 7.6 | 53.6 | 105 | –
5 | COP(=O)(OC)C1(c2csnn2)NC2=C(C1=O)C(c1cccs1)c1c(C)n[nH]c1O2 (stereo not drawn) [Compound 7, dimethyl(3-methyl-5-oxo-6-(1,2,3-thiadiazol-4-yl)-4-(thiophen-2-yl)-4,5,6,7-tetrahydro-1H-pyrrolo[3′,2′:5,6]pyrano[2,3-c]pyrazol-6-yl)phosphonate] | 190 | 4.3 | moderate efficacies | 35.8 | 25.8 | – | 60.7 | 772 | –
6 | Cc1n[nH]c2c1C(c1cccs1)C1=C(NC(c3csnn3)c3c(C(F)(F)F)nn(C)c3OC1=N)O2 (stereo not drawn) [Compound 8] | 45.3 | 0.6 | did not | 86.2 | 69.1 | – | – | – | –
7 | CCO/C=N/C1=C(C#N)C(c2cccs2)c2c(C)n[nH]c2O1 (stereo not drawn) [Compound 9] | 365 | 2.3 | minimal antiviral activity | 134 | 134 | – | – | – | –
8 | Cc1n[nH]c2c1C(c1cccs1)c1c(ncn(N)c1=N)O2 (stereo not drawn) [Compound 10] | 25.4 | 1.3 | minimal antiviral activity | – | – | – | – | – | –
9 | Cc1n[nH]c2c1C(c1cccs1)c1c(ncn3[nH]c(=S)nc13)O2 (stereo not drawn) [Compound 11] | 19.7 | 1.7 | minimal antiviral activity | 16 | 10.9 | – | – | – | –
10 | Cc1n[nH]c2c1C(c1cccs1)c1c(ncn3ncnc13)O2 (stereo not drawn) [Compound 12] | 66.6 | 3.5 | minimal antiviral activity | 18.6 | – | – | – | – | –
11 | Cc1n[nH]c2c1C(c1cccs1)c1c(ncn3nc(-c4nc[nH]n4)nc13)O2 (stereo not drawn) [Compound 13] | 49.8 | 0.46 | did not | 88.8 | 88.8 | – | – | – | –
12 | Cc1n[nH]c2c1C(c1cccs1)C(C#N)=C(/N=C/[C@H](O)[C@@H](O)[C@H](O)CO)O2 (stereo partly drawn) [Compound 14] | 507 | – | moderate efficacies | 78.7 | – | 6.5 | 55 | 180 | –
13 | Cc1n[nH]c2c1C(c1cccs1)C(C#N)=C(/N=C/[C@@H](O)[C@H](O)[C@H](O)CO)O2 (stereo partly drawn) [Compound 15] | 146 | 1.18 | minimal antiviral activity | 123 | 123 | – | – | – | > 300
14 | Cc1n[nH]c2c1C(c1cccs1)C(C#N)=C(/N=C/[C@@H](O)[C@@H](O)[C@H](O)[C@H](O)CO)O2 (stereo partly drawn) [Compound 17] | 183 | 1.7 | minimal antiviral activity | 95.4 | – | – | – | – | > 300
15 | Cc1n[nH]c2c1C(c1cccs1)C(C#N)=C(/N=C/[C@H](O)[C@@H](O)[C@@H](O)[C@H](O)CO)O2 (stereo partly drawn) [Compound 18] | 567 | – | – | 44.9 | – | 12.6 | 82.2 | 66.1 | > 300
16 | CCC[C@@]1(CCc2ccccc2)CC(O)=C([C@H](CC)c2cccc(NS(=O)(=O)c3ccc(C(F)(F)F)cn3)c2)C(=O)O1 [tipranavir, reference compound] | – | – | – | – | – | – | – | 22.1 | –
